Test results taken from patent publication US20220096509A1, “Reformulating Hospital Gentamicin to reduce the risk of hearing loss while maintaining antimicrobial activity” (priority 2019, published 2022).
Several values for one entry are separate records, joined by “and”; a condition that tells them apart may be missing. Equal entries are not always repeated. Entries after “also recorded” stand apart in the source; their conditions may differ. Where two headings read alike, the source gives them in different places.

Experiments:
[1] = test system: S. aureus, E. coli, K. pneumoniae, P. aeruginosa strains; assay: Antimicrobial breadth and potency (MIC) across 40 bacterial strains; type: cell-based
Excerpt: (§1) The colors represent different species, the numbers in the columns refer to the number of individual strains inhibited, where black=S. aureus, grey=E. coli, blue=K. pneumoniae, white=P. aeruginosa. […] (2B) The MIC values for each strain (diamond symbols) split by species, where Hospital=red, C1=orange, blue=C1a, cyan=C2, green=C2a, purple=C2b (grey scale only). Filled symbols indicate strains with antimicrobial resistance. The box indicates the 25-75 percentiles, stars indicate geometric means, *=P<0.05, **=P<0.01 tested using Mann Whitney U Non-Parametric analysis. […] (2C) The antimicrobial breadths of the impurities relative to a hospital bottle. […] (2D) The MIC values for each strain split by species.
(§2) The antimicrobial activity of the main components of gentamicin were studied relative to a single hospital bottle (gentamicin mixture) from Stanford University Hospital.

S. aureus = type: cell-based; details: for antimicrobial potency relative to hospital bottle: Mann Whitney U Test
Excerpt: as §1, §2

P. aeruginosa = assay: MIC against P. aeruginosa strains; type: cell-based
Excerpt: as §1, §2

rat cochlear hair cells [2] = details: for EC50: read-out: EC50±SE, hair cell survival (ototoxicity)
E. coli = assay: MIC against E. coli strains; type: cell-based; details: Mann Whitney U Test
Excerpt: (§3) […]. The colors represent different species, the numbers in the columns refer to the number of individual strains inhibited, where black=S. aureus, grey=E. coli, blue=K. pneumoniae, white=P. aeruginosa. The hospital bottle inhibits 35/40 strains tested, with the C-components inhibiting 31-35 strains. (2B) The MIC values for each strain (diamond symbols) split by species, where Hospital=red, C1=orange, blue=C1a, cyan=C2, green=C2a, purple=C2b (grey scale only). Filled symbols indicate strains with antimicrobial resistance. The box indicates the 25-75 percentiles, stars indicate geometric means, *=P<0.05, **=P<0.01 tested using Mann Whitney U Non-Parametric analysis. […] There are also some differences between individual components in S. aureus and P. aeruginosa. (2C) The antimicrobial breadths of the impurities relative to a hospital bottle. The hospital bottle inhibits 35/40 strains tested, with the impurities Gent B, Gent A, Gent X and G418 inhibiting 15-21 strains. One impurity, Sisomicin inhibited 35/40 strains. (2D) The MIC values for each strain split by species. […].

K. pneumoniae = assay: MIC against K. pneumoniae strains; type: cell-based; details: Mann Whitney U Test
Excerpt: as §3

rat cochlear hair cells [3] = assay: tissue or blood; details: read-out: EC50±SE, hair cell survival (ototoxicity)
[4] = mid-apical region of the cochlea, n>5 per data point, logarithmic function best fit

Compound: CN[C@@H]1[C@@H](O)[C@@H](O[C@@H]2[C@@H](O)[C@H](O[C@H]3O[C@H]([C@@H](C)NC)CC[C@H]3N)[C@@H](N)C[C@H]2N)OC[C@]1(C)O [C1, gentamicin C1]
- antimicrobial potency among the components [1]: lowest antimicrobial potency
- antimicrobial potency relative to hospital bottle (S. aureus; S. aureus): less potent than the hospital bottle; also recorded: less antimicrobial than the hospital bottle
- Geomean MIC (S. aureus; S. aureus, n=10 strains): 0.53 µg/mL and 0.54 µg/mL
- Geomean MIC (P. aeruginosa; P. aeruginosa, n≥8 strains): 1.52 µg/mL
- ototoxicity relative to hospital bottle (rat cochlear hair cells [2]): not significantly different from the hospital bottle
- EC50 (rat cochlear hair cells [2]; [4]): 755 ± 60 µM

Compound: CN[C@@H]1[C@@H](O)[C@@H](O[C@@H]2[C@@H](O)[C@H](O[C@H]3O[C@H]([C@@H](C)N)CC[C@H]3N)[C@@H](N)C[C@H]2N)OC[C@]1(C)O [C2, gentamicin C2]
- ototoxicity among the drug components (rat cochlear hair cells [2]): most ototoxic component
- EC50 (rat cochlear hair cells [2]; [4]): 402 ± 38 µM

Compound: CN[C@@H]1[C@@H](O)[C@@H](O[C@@H]2[C@@H](O)[C@H](O[C@H]3O[C@H]([C@H](C)N)CC[C@H]3N)[C@@H](N)C[C@H]2N)OC[C@]1(C)O [C2a, gentamicin C2a]
- ototoxicity relative to hospital bottle (rat cochlear hair cells [2]): not significantly different from the hospital bottle
- EC50 (rat cochlear hair cells [2]; [4]): 614 ± 69 µM

Compound: CNC[C@@H]1CC[C@@H](N)[C@@H](O[C@H]2[C@H](O)[C@@H](O[C@H]3OC[C@](C)(O)[C@H](NC)[C@H]3O)[C@H](N)C[C@@H]2N)O1 [C2b, gentamicin C2b]
- ototoxicity relative to hospital bottle (rat cochlear hair cells [2]): less ototoxic than the hospital bottle
- EC50 (rat cochlear hair cells [2]; [4]): 1200 ± 114 µM

Compound: CN[C@@H]1[C@@H](O)[C@@H](O[C@@H]2[C@@H](O)[C@H](O[C@H]3O[C@H]([C@@H](C)O)[C@@H](O)[C@H](O)[C@H]3N)[C@@H](N)C[C@H]2N)OC[C@]1(C)O [G418, geneticin, reference compound]
- ototoxicity relative to hospital bottle (rat cochlear hair cells [2]): more ototoxic at lower doses than the hospital but requires a higher dose to kill all hair cells than the hospital

Compound: CN[C@@H]1[C@@H](O)[C@@H](O[C@@H]2[C@@H](O)[C@H](O[C@H]3O[C@H](CN)[C@@H](O)[C@H](O)[C@H]3O)[C@@H](N)C[C@H]2N)OC[C@]1(C)O [Gent B]
- antimicrobial potency relative to hospital bottle ([1]; all species tested, P<0.05, n≥8 strains): significantly less potent than the hospital bottle

Compound: CN[C@@H]1[C@@H](O)[C@@H](O[C@@H]2[C@@H](O)[C@H](O[C@H]3OC(CN)=CC[C@H]3N)[C@@H](N)C[C@H]2N)OC[C@]1(C)O [Sisomicin]
- number of strains inhibited (antimicrobial breadth) ([1]; 40 strains tested, breadth defined as MIC value ≤4μg/ml): 35/40
- antimicrobial potency relative to hospital bottle (S. aureus; S. aureus): more potent than the hospital
- antimicrobial potency relative to hospital bottle (P. aeruginosa; P. aeruginosa, Mann Whitney U Test): more potent than the hospital
- antimicrobial potency relative to hospital bottle (E. coli): equi-potent to the hospital
- antimicrobial potency relative to hospital bottle (K. pneumoniae): equi-potent to the hospital
- ototoxicity relative to hospital bottle (rat cochlear hair cells [2]): more ototoxic than the hospital
- EC50 (rat cochlear hair cells [3]): 212 ± 7 µM

Compound: gentamicin C1a
- Geomean MIC (S. aureus): 0.29 µg/mL
- antimicrobial potency relative to C1 component (S. aureus): more antimicrobial than the C1 component
- Geomean MIC (P. aeruginosa): 0.71 µg/mL
- antimicrobial potency relative to C1 component (P. aeruginosa): more antimicrobial than the C1 component
- EC50 (rat cochlear hair cells [2]): 816 ± 18 µM
